The target in assay [1] is Dual specificity mitogen-activated protein kinase kinase 1 (Homo sapiens) (UniProt Q02750). Put plainly: Inhibition of recombinant human His-tagged full length MEK1 expressed in baculovirus expression system using Ser/Thr 03 as substrate at 0.1 uM incubated for 60 mins by Z'-lyte assay relative to control.
In assay [2] the target is T1, G protein-coupled receptor kinase 3 (Homo sapiens) (UniProt P35626).
T1 sequence (whole entry): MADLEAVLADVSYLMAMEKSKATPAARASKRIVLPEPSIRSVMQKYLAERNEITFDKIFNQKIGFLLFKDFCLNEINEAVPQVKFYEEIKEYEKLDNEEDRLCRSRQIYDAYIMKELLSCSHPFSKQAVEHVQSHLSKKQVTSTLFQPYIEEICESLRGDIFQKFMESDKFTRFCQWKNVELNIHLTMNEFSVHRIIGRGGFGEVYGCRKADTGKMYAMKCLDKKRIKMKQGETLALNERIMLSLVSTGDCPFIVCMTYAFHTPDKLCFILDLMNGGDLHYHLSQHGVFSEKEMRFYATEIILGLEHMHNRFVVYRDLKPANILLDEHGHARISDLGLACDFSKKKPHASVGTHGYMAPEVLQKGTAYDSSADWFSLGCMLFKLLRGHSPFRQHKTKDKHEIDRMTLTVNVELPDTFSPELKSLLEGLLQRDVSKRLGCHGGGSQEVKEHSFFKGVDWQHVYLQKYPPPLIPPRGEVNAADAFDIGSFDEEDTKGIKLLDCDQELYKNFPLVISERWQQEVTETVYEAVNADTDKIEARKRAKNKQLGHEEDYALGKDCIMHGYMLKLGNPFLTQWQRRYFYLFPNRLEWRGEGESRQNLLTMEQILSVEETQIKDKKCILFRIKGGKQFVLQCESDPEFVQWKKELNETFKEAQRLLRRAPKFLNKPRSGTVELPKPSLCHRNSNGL
Put plainly: Inhibition of recombinant human GST-tagged full length GRK3 expressed in baculovirus expression system using Ser/Thr 16 as substrate at 0.1 uM incubated for 60 mins by Z'-Lyte assay relative to control.

For assay [3], the target named is Tyrosine-protein kinase CSK (Homo sapiens) (UniProt P41240). Put plainly: Inhibition of recombinant human GST-tagged full length CSK expressed in Escherichia coli expression system using Tyr 02 as substrate at 0.1 uM incubated for 60 mins by Z'-Lyte assay relative to control.
Tyrosine-protein kinase CSK (Homo sapiens), sequence (P41240 2-450 limits assumed): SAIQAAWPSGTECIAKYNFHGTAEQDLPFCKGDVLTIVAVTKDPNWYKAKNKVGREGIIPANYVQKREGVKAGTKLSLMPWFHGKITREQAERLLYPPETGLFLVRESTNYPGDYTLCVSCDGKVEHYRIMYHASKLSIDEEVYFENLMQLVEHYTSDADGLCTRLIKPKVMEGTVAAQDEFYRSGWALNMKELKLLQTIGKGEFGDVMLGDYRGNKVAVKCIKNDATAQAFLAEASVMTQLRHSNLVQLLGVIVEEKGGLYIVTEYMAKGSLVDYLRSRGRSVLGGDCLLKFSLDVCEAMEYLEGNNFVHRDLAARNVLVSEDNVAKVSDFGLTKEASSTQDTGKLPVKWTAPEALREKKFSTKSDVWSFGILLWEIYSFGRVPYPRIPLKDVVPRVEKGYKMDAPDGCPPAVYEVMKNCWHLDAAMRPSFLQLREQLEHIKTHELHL
Assay [4] addresses T2, Inhibitor of nuclear factor kappa-B kinase subunit beta (Homo sapiens) (UniProt O14920).
T2 sequence (whole entry): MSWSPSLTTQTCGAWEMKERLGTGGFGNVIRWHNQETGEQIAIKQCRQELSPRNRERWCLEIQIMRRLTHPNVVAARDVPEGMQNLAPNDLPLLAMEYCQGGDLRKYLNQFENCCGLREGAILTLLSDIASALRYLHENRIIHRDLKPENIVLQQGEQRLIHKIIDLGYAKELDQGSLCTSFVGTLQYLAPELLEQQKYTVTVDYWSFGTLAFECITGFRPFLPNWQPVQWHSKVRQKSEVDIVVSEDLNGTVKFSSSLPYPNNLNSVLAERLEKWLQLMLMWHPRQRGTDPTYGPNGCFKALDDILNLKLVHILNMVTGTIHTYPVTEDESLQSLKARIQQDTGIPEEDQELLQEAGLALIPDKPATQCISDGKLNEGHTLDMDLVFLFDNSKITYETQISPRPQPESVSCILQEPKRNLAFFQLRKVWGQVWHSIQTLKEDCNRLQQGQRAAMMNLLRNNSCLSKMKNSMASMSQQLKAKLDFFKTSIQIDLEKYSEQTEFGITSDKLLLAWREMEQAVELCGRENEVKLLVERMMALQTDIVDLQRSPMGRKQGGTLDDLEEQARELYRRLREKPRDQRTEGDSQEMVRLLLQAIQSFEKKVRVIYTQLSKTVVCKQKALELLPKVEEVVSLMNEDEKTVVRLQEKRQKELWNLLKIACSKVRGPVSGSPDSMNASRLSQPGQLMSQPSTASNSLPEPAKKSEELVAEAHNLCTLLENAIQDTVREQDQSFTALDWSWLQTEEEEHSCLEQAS
The experiment in a line: Inhibition of recombinant human GST-tagged full length IKKbeta expressed in baculovirus expression system using Ser/Thr 05 as substrate at 0.1 uM incubated for 60 mins by Z'-Lyte assay relative to control.

Assay [5] deals with cAMP-dependent protein kinase catalytic subunit alpha (Homo sapiens) (UniProt P17612). Put plainly: Inhibition of recombinant human His-tagged PKA (1 to 351 residues) expressed in Escherichia coli expression system using Ser/Thr 01 as substrate at 0.1 uM incubated for 60 mins by Z'-lyte assay relative to control.
Assay [6] addresses Tyrosine-protein kinase JAK1 (Homo sapiens, UniProt P23458).
In assay [7] the target is Fibroblast growth factor receptor 1 (Homo sapiens) (UniProt P11362). Put plainly: Inhibition of recombinant human His-tagged FGFR1 (308 to 731 residues) expressed in baculovirus expression system using Tyr 01 as substrate at 0.1 uM incubated for 60 mins by Z'-Lyte assay relative to control.
Fibroblast growth factor receptor 1 (Homo sapiens), sequence (P11362 22-822 limits assumed): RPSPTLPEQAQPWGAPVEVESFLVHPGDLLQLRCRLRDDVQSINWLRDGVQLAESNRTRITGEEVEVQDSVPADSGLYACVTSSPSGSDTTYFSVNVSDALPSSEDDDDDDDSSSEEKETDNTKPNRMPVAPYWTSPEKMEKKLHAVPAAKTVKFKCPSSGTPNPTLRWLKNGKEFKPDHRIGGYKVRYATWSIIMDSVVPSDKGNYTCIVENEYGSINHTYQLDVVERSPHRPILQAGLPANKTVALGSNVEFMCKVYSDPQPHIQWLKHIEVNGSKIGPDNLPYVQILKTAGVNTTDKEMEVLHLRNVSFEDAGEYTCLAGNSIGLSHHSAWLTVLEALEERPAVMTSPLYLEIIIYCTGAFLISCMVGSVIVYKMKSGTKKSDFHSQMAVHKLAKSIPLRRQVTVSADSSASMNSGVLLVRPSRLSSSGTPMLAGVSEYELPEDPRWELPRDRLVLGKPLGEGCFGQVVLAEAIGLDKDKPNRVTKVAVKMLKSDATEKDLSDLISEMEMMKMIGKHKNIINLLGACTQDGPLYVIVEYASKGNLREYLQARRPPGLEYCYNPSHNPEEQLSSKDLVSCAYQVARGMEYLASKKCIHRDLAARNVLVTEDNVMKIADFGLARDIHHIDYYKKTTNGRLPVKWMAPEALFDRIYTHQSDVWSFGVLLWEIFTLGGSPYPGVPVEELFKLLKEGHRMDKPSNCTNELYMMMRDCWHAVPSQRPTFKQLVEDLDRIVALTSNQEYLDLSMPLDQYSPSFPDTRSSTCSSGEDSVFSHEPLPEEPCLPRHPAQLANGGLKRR
Assay [8] deals with CDK8/Cyclin C (Homo sapiens) (UniProt P49336+P24863). The experiment in a line: Inhibition of tracer 236 binding to recombinant human His-tagged full length CDK8/Cyclin C expressed in baculovirus expression system at 0.1 uM incubated for 60 mins by Lanthascreen assay relative to control. (In general: TR-FRET usually uses a lanthanide donor and a delayed reading to cut background.)

Assay [9] has as its target Serine/threonine-protein kinase mTOR (Homo sapiens) (UniProt P42345). Put plainly: Inhibition of recombinant human GST-tagged mTOR (1360 to 2549 residues) expressed in Escherichia coli expression system using Ser/Thr 11 as substrate at 0.1 uM incubated for 60 mins by Z'-Lyte assay relative to control.
Assay [10] addresses Mitogen-activated protein kinase 11 (Homo sapiens) (UniProt Q15759). Put plainly: Inhibition of recombinant human His-tagged full length p38 beta expressed in baculovirus expression system using Ser/Thr 15 as substrate at 0.1 uM incubated for 60 mins by Z'-Lyte assay relative to control.
Assay [11] deals with Mitogen-activated protein kinase 14 (Homo sapiens) (UniProt Q16539). The experiment in a line: Inhibition of recombinant human GST-tagged full length p38 alpha expressed in Escherichia coli expression system using Ser/Thr 15 as substrate at 0.1 uM incubated for 60 mins by Z'-Lyte assay relative to control.
Mitogen-activated protein kinase 14 (Homo sapiens), sequence (Q16539 whole entry): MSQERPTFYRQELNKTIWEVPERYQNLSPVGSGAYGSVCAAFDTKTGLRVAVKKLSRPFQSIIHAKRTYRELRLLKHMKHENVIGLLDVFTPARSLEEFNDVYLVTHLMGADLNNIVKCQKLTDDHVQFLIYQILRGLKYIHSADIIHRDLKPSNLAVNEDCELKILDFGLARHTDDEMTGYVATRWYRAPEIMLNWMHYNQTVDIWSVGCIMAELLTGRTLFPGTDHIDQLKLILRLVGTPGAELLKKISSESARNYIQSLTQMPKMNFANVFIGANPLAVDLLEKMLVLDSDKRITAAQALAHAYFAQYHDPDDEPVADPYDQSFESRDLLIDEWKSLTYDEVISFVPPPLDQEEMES
Assay [12] addresses Serine/threonine-protein kinase pim-1 (Homo sapiens) (UniProt P11309). The experiment in a line: Inhibition of recombinant human His-tagged full length PIM1 expressed in baculovirus expression system using Ser/Thr 07 as substrate at 0.1 uM incubated for 60 mins by Z'-lyte assay relative to control.

The structures appear in SMILES notation.

Mitogen-activated protein kinase 11 (Homo sapiens), sequence (Q15759 whole entry): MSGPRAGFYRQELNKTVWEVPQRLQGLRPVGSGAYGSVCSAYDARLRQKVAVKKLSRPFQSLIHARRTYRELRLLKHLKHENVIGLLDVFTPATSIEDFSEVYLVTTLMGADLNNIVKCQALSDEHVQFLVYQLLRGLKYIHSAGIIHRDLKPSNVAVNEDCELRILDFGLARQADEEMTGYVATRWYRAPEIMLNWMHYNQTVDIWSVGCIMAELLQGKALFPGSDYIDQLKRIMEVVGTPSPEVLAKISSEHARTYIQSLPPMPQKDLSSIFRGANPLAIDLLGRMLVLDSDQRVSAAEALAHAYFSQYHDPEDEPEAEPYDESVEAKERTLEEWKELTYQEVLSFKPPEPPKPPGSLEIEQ
Serine/threonine-protein kinase pim-1 (Homo sapiens), sequence (P11309 whole entry, looked up): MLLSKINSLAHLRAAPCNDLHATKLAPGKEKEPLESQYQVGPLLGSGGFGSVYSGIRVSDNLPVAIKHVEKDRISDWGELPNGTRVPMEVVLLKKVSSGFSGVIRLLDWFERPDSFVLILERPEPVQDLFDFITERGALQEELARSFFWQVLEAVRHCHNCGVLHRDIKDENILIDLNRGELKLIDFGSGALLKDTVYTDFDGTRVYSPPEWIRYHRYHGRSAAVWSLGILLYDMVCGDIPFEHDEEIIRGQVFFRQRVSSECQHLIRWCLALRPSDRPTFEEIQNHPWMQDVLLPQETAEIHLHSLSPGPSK
Dual specificity mitogen-activated protein kinase kinase 1 (Homo sapiens), sequence (Q02750 whole entry): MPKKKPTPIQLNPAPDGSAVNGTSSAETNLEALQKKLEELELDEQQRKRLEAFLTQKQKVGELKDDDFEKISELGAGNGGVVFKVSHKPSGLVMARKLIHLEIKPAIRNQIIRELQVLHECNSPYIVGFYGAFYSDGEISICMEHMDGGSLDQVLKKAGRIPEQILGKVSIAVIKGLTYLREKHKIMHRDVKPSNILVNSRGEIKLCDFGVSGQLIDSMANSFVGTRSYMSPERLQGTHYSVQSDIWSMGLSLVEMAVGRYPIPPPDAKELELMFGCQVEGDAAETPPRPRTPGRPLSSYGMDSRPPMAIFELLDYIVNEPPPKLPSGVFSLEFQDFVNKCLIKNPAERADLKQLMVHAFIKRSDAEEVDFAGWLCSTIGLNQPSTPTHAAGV
Tyrosine-protein kinase JAK1, sequence (P23458 whole entry, the tested form may be a part): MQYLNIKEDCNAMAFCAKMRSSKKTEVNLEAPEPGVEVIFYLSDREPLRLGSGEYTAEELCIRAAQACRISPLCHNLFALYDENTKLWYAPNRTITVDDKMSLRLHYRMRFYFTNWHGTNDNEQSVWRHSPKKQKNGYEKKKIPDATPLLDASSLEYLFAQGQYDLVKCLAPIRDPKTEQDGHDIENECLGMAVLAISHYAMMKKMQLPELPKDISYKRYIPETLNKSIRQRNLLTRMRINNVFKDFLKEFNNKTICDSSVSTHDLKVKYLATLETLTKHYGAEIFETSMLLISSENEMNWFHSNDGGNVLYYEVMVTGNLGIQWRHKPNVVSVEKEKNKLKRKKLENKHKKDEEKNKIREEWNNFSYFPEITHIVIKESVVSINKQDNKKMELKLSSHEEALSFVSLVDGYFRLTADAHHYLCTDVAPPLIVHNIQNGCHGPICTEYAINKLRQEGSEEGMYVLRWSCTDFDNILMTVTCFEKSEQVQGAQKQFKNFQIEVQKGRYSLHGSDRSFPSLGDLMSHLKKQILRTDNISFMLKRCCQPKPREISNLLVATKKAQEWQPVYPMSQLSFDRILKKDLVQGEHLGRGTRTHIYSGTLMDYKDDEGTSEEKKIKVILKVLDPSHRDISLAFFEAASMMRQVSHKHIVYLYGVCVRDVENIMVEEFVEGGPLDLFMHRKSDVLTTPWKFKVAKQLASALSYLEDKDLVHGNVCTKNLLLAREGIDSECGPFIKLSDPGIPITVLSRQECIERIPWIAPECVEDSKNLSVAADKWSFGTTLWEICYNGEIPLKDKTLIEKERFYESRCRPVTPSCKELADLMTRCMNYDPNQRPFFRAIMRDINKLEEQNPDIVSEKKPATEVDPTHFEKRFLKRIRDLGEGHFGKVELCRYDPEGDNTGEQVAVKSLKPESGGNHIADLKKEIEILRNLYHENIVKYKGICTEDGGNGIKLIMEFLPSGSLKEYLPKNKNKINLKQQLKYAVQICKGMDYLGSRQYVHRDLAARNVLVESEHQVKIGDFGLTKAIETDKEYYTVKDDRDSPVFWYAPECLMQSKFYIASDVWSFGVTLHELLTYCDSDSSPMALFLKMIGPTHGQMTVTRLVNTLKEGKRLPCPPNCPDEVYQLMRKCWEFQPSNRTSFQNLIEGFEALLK

One may read the inhibition as the drop in the measured response relative to a control, in per cent. What is called IC50 is the concentration that inhibits the measured activity by half. For `O=C(Nc1c[nH]nc1-c1cc(Cl)ccc1OC(F)F)c1cnn2cccnc12`, the inhibition is -8% in [1]; -1% in assay [2]; -2% in [3]; 2% in assay [4]; 5% in assay [5]; -1% in assay [7]. Moreover, the inhibition in assay [8] is 38%; in [9], 1%; in assay [10], 9%; in assay [11], -4%; in assay [12], 4%. This compound also had an IC50 in [6] of 1.2 nM.
As for `O=C(Nc1c[nH]nc1-c1cc2ccccc2cc1OC(F)F)c1cnn2cccnc12`, the inhibition was 0% in [1]; 1% in assay [2]; 3% in assay [3]; -3% in assay [4]; 5% in assay [5]; 1% in assay [7]. For the same compound, the inhibition in assay [8] was 24%; in assay [9] it was 5%; in assay [10], 5%; in assay [11], 2%; in assay [12] it was 4%. In assay [6], the IC50 was 2.2 nM.
On to `Cn1cc(NC(=O)c2cnn3cccnc23)c(-c2cc(Cl)ccc2OC(F)F)n1`, for which the inhibition in [1] was 0%; in assay [2] it was 3%; in assay [3], 2%; in [4] it was 5%; in [5], -4%; in assay [7], 6%. Moreover, the inhibition in assay [8] is 14%; in assay [9] it was -3%; in assay [10] it was 11%; in assay [11], 7%; in assay [12] it was 6%. This compound also registered a half-inhibitory concentration (IC50) in assay [6] of 1.7 nM.

The values above are taken from ChEMBL document CHEMBL4665643 (Bioorg Med Chem Lett, 2019).
